{
  "source": "patent US9724383B2",
  "about": "“Stabilized trimeric HIV-1 GP41 fusion inhibitor polypeptides comprising the N-terminal heptad repeat (NHR) and foldon (FD) trimerization motif” (New York Blood Center, Inc., priority 2009, dated 2017)",
  "key": {"CHR-peptide C34": {"target": "CHR-peptide C34 (Human immunodeficiency virus type 1 group M subtype B, UniProt P04578)", "sequence (P04578 628-661)": "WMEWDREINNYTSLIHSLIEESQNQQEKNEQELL", "assay_type": "binding, HIV-1", "conditions": "CD spectroscopy", "method": "(§1) All the N-peptides were diluted in ddH2O (pH 7.0) and all the C-peptides or the mixture of the N- and C-peptides were diluted in 50 mM sodium phosphate and 150 mM NaCl (PBS, pH 7.2) to a final concentration of 10 μM. The individual peptides and their mixtures were incubated in a 37° C. water bath for 0.5 h before testing. […] The α-helicity was calculated from the CD signal by dividing the mean residue ellipticity at 222 nm by the value expected for 100% helix formation (i.e., 33,000° cm^2 dmol^−1) according to previous studies. Thermal denaturation of the samples was monitored at 222 nm by applying a temperature gradient from 20° C. to 98° C. with a 2-degree interval, an equilibration time of 1.5 min, and an averaging time of 60 s. The midpoint of the thermal unfolding transition (Tm) values was calculated using Jasco software utilities as described previously."}, "[1]": {"system": "HIV-1IIIB (subtype B, X4)", "method": "(§2) In brief, 1×10^4 MT-2 cells were infected with HIV-1IIIB in 200 μl RPMI 1640 medium containing 10% FBS in the presence or absence of testing compounds at graded concentrations overnight. Then the culture supernatants were removed and fresh media containing no testing compounds were added. On the fourth day post-infection, 100 μl of culture supernatants were collected from each well, mixed with equal volumes of 5% Triton X-100 and assayed for p24 antigen, which was quantitated by ELISA. Briefly, wells of polystyrene plates (Immulon 1B, Dynex Technology, Chantilly, Va.) were coated with HIV immunoglobulin (HIVIG), which was prepared from plasma of HIV-seropositive donors with high neutralizing titers against HIV-1IIIB, in 0.085 M carbonate-bicarbonate buffer (pH 9.6) at 4° C. overnight, followed by washes with washing buffer (0.01M PBS containing 0.05% Tween-20) and blocking with PBS containing 1% dry fat-free milk (Bio-Rad Inc., Hercules, Calif.). Virus lysates were added to the wells and incubated at 37° C. for 1 h. […] Reactions were terminated by addition of 1N H2SO4. Absorbance at 450 nm was recorded in an ELISA reader (Ultra 386, TECAN, Research Triangle Park, NC). Recombinant protein p24 purchased from US Biological (Swampscott, Mass.) was included for establishing standard dose response curves. […] The percentage of inhibition of p24 production was calculated as previously described."}, "[2]": {"experiment": "CD spectroscopy of secondary structure (α-helicity) of the individual peptides", "assay_type": "physicochemical", "conditions": "CD at 222 nm, 10 μM, ddH2O pH 7.0; spectrum of free Fd subtracted", "method": "as §1"}, "[3]": {"experiment": "SDS-PAGE analysis of trimer stability", "assay_type": "physicochemical", "conditions": "2% SDS sample buffer, room temperature or boiled 5 min", "method": "Purified N36Fd and N28Fd were analyzed by SDS-PAGE. […] The sample was boiled for 5 min or kept at room temperature (RT) before loading onto a 10-20% Tricine-Glycine gel (Invitrogen). The electrophoresis was conducted in SDS-PAGE running buffer with 125V constant voltage at 4° C. The gels were stained with SimplyBlue SafeStain (Invitrogen)."}, "[4]": {"system": "HIV-1 Bal (subtype B, R5)", "assay_type": "cell-based", "method": "The cells were harvested and lysed on the fourth day post-infection with 50p1 of lysing reagent. The luciferase activity was analyzed using a luciferase kit (Promega, Madison, Wis.) and a luminometer (Ultra 386) according to the manufacturer's instructions. The percent inhibition of luciferase activity was calculated."}, "[5]": {"system": "HIV-1IIIB-mediated cell-cell fusion", "method": "Briefly, H9/HIV-1IIIB cells were pre-labeled with a fluorescent dye, Calcein AM (Molecular Probes, Inc., Eugene, Oreg.), and incubated with a testing compound at a graded concentration at 37° C. for 30 min in a 96-well cell culture plate. Then the CD4^+ MT-2 cells were added to the H9/HIV-1IIIB cells at a ratio of 10:1, followed by incubation at 37° C. for 2 hrs. The fused and unfused Calcein-labeled HIV-1-infected cells were counted under an inverted fluorescence microscope (Zeiss, Germany) with an eyepiece micrometer disc. The percent inhibition of cell fusion by a compound and the EC50 and EC90 values were calculated using the software CalcuSyn."}, "[6]": {"system": "HIV-1 93IN101 (subtype C, R5)", "assay_type": "cell-based", "method": "For inhibition of infection by the primary HIV-1 isolate 93IN101 (subtype C, R5), the peripheral blood mononuclear cells (PBMCs) were isolated from the blood of healthy donors using a standard density gradient (Histopaque-1077, Sigma) centrifugation. After incubation at 37° C. for 2 h, the nonadherent cells were collected and resuspended at 5×10^5/ml in RPMI medium 1640 containing 10% FBS, 5 μg of phytohemagglutinin (PHA)/ml, and 100 U of interleukin-2/ml, followed by incubation at 37° C. for 3 days. The PHA-stimulated cells were infected with the primary HIV-1 isolate at a multiplicity of infection (MOI) of 0.01 in the absence or presence of N-Fd peptides at graded concentrations. The supernatants were collected on the 7th day post-infection and tested for p24 antigen by ELISA."}, "[7]": {"system": "HIV-1NL4-3(36G) V38E/N42S", "conditions": "T20-resistant", "method": "(§3) In brief, 1×10^4 MT-2 cells were infected with HIV-1IIIB in 200 μl RPMI 1640 medium containing 10% FBS in the presence or absence of testing compounds at graded concentrations overnight. Then the culture supernatants were removed and fresh media containing no testing compounds were added. On the fourth day post-infection, 100 μl of culture supernatants were collected from each well, mixed with equal volumes of 5% Triton X-100 and assayed for p24 antigen, which was quantitated by ELISA. Briefly, wells of polystyrene plates (Immulon 1B, Dynex Technology, Chantilly, Va.) were coated with HIV immunoglobulin (HIVIG), which was prepared from plasma of HIV-seropositive donors with high neutralizing titers against HIV-1IIIB, in 0.085 M carbonate-bicarbonate buffer (pH 9.6) at 4° C. overnight, followed by washes with washing buffer (0.01M PBS containing 0.05% Tween-20) and blocking with PBS containing 1% dry fat-free milk (Bio-Rad Inc., Hercules, Calif.). Virus lysates were added to the wells and incubated at 37° C. for 1 h. […] Reactions were terminated by addition of 1N H2SO4. Absorbance at 450 nm was recorded in an ELISA reader (Ultra 386, TECAN, Research Triangle Park, NC). Recombinant protein p24 purchased from US Biological (Swampscott, Mass.) was included for establishing standard dose response curves. Each sample was tested in triplicate. The percentage of inhibition of p24 production was calculated as previously described.\n(§4) Mutations in the NHR region of HIV-1 virus NL4-3 cause genetic resistance to T20."}, "[8]": {"system": "HIV-1NL4-3(36G) N42T/N43K", "conditions": "T20-resistant", "method": "as §3, §4"}, "[9]": {"system": "HIV-1NL4-3(36G) V38A/N42D", "conditions": "T20-resistant", "method": "as §3, §4"}, "HIV-1NL4-3(36G) N42S": {"system": "HIV-1NL4-3(36G) N42S", "conditions": "T20-sensitive", "method": "as §3, §4"}, "HIV-1IIIB": {"system": "HIV-1IIIB", "experiment": "Proteinase K digestion, remaining antiviral activity against HIV-1IIIB infection", "conditions": "1 μU/ml Proteinase K in PBS, 37° C., 3 hrs", "method": "as §2"}, "Proteinase K": {"target": "T1, Proteinase K (Parengyodontium album, UniProt P06873)", "T1 construct": "purchased Sigma", "T1 sequence (P06873 106-384)": "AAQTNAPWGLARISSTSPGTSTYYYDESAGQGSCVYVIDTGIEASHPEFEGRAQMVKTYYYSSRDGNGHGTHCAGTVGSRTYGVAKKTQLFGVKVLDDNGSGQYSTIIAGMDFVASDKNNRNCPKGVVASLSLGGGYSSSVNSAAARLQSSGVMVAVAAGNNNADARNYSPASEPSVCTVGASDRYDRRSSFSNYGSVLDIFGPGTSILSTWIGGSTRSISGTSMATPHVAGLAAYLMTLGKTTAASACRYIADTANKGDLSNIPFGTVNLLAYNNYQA", "experiment": "Proteinase K digestion, residual peptide by direct ELISA", "assay_type": "in vitro ADME", "conditions": "1 μU/ml Proteinase K in PBS, 37° C.", "excerpt": "T20 was used as a control. […] Samples were collected at different times and centrifuged immediately."}, "HIV-1-mediated fusion": {"system": "HIV-1-mediated fusion", "conditions": "background statement; cited from earlier work"}},
  "note": "“Also recorded” adds a separate entry of the source. Read-outs that look alike come from different tables or passages of the source. Peptide text beside a SMILES is read from it.",
  "data": [
    {"compound": "CC[C@H](C)[C@H](N)C(=O)N[C@@H](CCC(=O)O)C(=O)N[C@@H](C)C(=O)N[C@@H](CCC(N)=O)C(=O)N[C@@H](CCC(N)=O)C(=O)N[C@@H](Cc1c[nH]cn1)C(=O)N[C@@H](CC(C)C)C(=O)N[C@@H](CC(C)C)C(=O)N[C@@H](CCC(N)=O)C(=O)N[C@@H](CC(C)C)C(=O)N[C@H](C(=O)N[C@H](C(=O)N[C@@H](Cc1c[nH]c2ccccc12)C(=O)NCC(=O)N[C@H](C(=O)N[C@@H](CCCCN)C(=O)N[C@@H](CCC(N)=O)C(=O)N[C@@H](CC(C)C)C(=O)N[C@@H](CCC(N)=O)C(=O)N[C@@H](C)C(=O)N[C@@H](CCCNC(=N)N)C(=O)N[C@H](C(=O)N[C@@H](CC(C)C)C(=O)N[C@@H](C)C(=O)N[C@H](C(=O)N[C@@H](CCC(=O)O)C(=O)N[C@@H](CCCNC(=N)N)C(=O)N[C@@H](Cc1ccc(O)cc1)C(=O)O)C(C)C)[C@@H](C)CC)[C@@H](C)CC)C(C)C)[C@@H](C)O", "note": "[N28] (H-IEAQQHLLQLTVWGIKQLQARILAVERY-OH; N-terminus and C-terminus assumed)", "values": [
      {"measurement": "complex formation with C34", "setting": "CHR-peptide C34", "value": "could not form a complex with C34"},
      {"measurement": "IC50", "setting": "[1]; 1IIIB (subtype B, X4)", "value": "> 3000", "unit": "nM"}
    ]},
    {"compound": "IEAQQHLLQLTVWGIKQLQARILAVERYGYIPEAPRDGQAYVRKDGEWVLLSTFL [N28Fd]", "values": [
      {"measurement": "α-helicity of the N36 or N28 portion in N36Fd or N28Fd", "setting": "[2]", "value": 30.9, "unit": "%"},
      {"measurement": "trimer stability in SDS-PAGE", "setting": "[3]", "value": "SDS-resistant but heat-sensitive trimer; also recorded: more stable than N36Fd under SDS conditions"},
      {"measurement": "IC50", "setting": "[4]; TZM-bl cells, luciferase, read-out: IC50 against infection by HIV-1 Bal", "value": 9.8, "unit": "nM"},
      {"measurement": "fold more potent than the free N-peptide in inhibiting cell-cell fusion", "setting": "[5]; N36Fd vs N36, N28Fd vs N28", "value": "> 138", "unit": "fold"},
      {"measurement": "IC50", "setting": "[5]; read-out: IC50, inhibition of HIV-1-induced cell-cell fusion, H9/HIV-1IIIB + MT-2 cells, 2 hrs", "value": 21, "unit": "nM"},
      {"measurement": "IC50", "setting": "[1]; read-out: IC50, inhibition of HIV-1IIIB replication (p24), MT-2 cells, day 4 post-infection", "value": 39, "unit": "nM"},
      {"measurement": "IC50", "setting": "[6]; PHA-stimulated PBMCs, p24 on day 7, read-out: IC50 against infection by HIV-1 93IN101", "value": 1.27, "unit": "nM"},
      {"measurement": "IC50", "setting": "[7]", "value": "46.4 ± 4.49", "unit": "nM"},
      {"measurement": "IC50", "setting": "[8]", "value": "30.6 ± 6.07", "unit": "nM"},
      {"measurement": "IC50", "setting": "[9]", "value": "29 ± 0.82", "unit": "nM"},
      {"measurement": "IC50", "setting": "HIV-1NL4-3(36G) N42S", "value": "26.95 ± 0.02", "unit": "nM"},
      {"measurement": "remaining antiviral activity against HIV-1IIIB infection, % of original", "setting": "HIV-1IIIB", "value": 97, "unit": "%"},
      {"measurement": "residual amount, % of original, detected by ELISA", "setting": "Proteinase K; 3 hrs", "value": 84, "unit": "%"}
    ]},
    {"compound": "enfuvirtide", "values": [
      {"measurement": "IC50", "setting": "[4]; Bal (subtype B, R5)", "value": 3.4, "unit": "nM"},
      {"measurement": "inhibition of HIV-1-mediated fusion", "setting": "HIV-1-mediated fusion", "value": "low nanomolar level"},
      {"measurement": "IC50", "setting": "[6]; 93IN101 (subtype C, R5, 2 h)", "value": 1.75, "unit": "nM"},
      {"measurement": "IC50", "setting": "[7]", "value": 1390, "unit": "nM"},
      {"measurement": "IC50", "setting": "[8]", "value": 374, "unit": "nM"},
      {"measurement": "IC50", "setting": "[9]", "value": 2300, "unit": "nM"},
      {"measurement": "IC50", "setting": "HIV-1NL4-3(36G) N42S", "value": 30, "unit": "nM"},
      {"measurement": "remaining antiviral activity against HIV-1IIIB infection, % of original", "setting": "HIV-1IIIB", "value": "completely lost its anti-HIV-1 activity"},
      {"measurement": "remaining at 3 h", "setting": "Proteinase K; read-out: residual amount, % of original, detected by ELISA", "value": 17, "unit": "%"}
    ]}
  ]
}
